Measurements: patent US6541463B1, “Inhibitors of type 5 and type 3 17β-hydroxysteroid dehydrogenase and methods for their use” (Endorecherche, Inc., priority 1998, dated 2003)
Like-named read-outs stand apart in the source and are kept apart here.

Key:
progesterone receptor = assay: Progesterone receptor assay: inhibition of [3H]R5020 binding, uterine cytosol; set-up: species or system rat
Experimental: The manner in which the percentage of inhibition is determined is described in “Other Tests; E-Progesterone Receptor Assay”. Lower numbers are desirable.
[17α-methyl-^3H]-promegestone (R5020) (84 Ci/mmol) and the corresponding unlabeled compound were purchased from New England Nuclear (Lachine, Québec, Canada). All other chemicals were of analytical grade.
Stock solutions of the unlabeled steroids were kept at 4° C. in ethanol. The desired steroid solutions were then prepared by appropriate dilution in buffer B (10 mM Tris-HCl, 1.5 mM EDTA, 10 mM α-monothioglycerol, pH 7.4) containing 30% ethanol.
Female Sprague-Dawley rats weighing 200-300 g were obtained from Charles-River Inc. (St-Constant, Québec, Canada). The rats were gonadectomized under general anesthesia (Isoflurane) and killed by cervical dislocation 24 hours later. The uteri are rapidly removed, dissected free from adhering tissue and frozen on dry-ice. Tissues were kept at −80° C. until use.
All procedures were performed at 4° C. Tissues were pulverized frozen in dry ice with a Thermovac pulverizer. The samples were then homogenized in 10 vol (w/v) of buffer A (25 mM Tris-HCl, 1.5 mM EDTA, 10 mM α-monothioglycerol, 10% glycerol, 10 mM sodium molybdate, pH 7.4) using a Polytron PT-10 homogenizer (Brinkmann Instruments, Canada) at a setting of 5 for two periods of 10 sec, with intervals of 10 sec for cooling. The homogenate was then centrifuged at 105,000×g for 90 min. The supernatant was used immediately for assay.
Progesterone binding was measured using the dextran-coated charcoal adsorption technique. […] Each concentration was done in triplicate. Assay was ended with 300 μl of DCC (1% Norit A and 0.1% Dextran T-70 in Buffer B). After 10 min of incubation, tubes were centrifuged at 2,000×g for 10 min. and decanted in vials with 6 ml of BCS liquid scintillation (New England Nuclear, Dupont). The radioactivity was measured in a Beckman counter at a counting efficiency of 35%.

[1] = test system: Shionogi mouse mammary carcinoma cells; assay: Antiandrogenic activity: inhibition of DHT-induced proliferation of Shionogi cells; assay type: cell-based
How it was run: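 Readout was direct Coulter counting of Shionogi mouse mammary tumour cells after 10–12 days' culture with increasing concentrations of agents and DHT, with medium refreshed every 3–4 days. Medium used dextran-coated charcoal-treated serum. Cells were plated at 20 000/well in triplicate, and ED50 came from least-square regression.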

[2] = Table 4′, DHT-induced proliferation, E^−6 (10^−6 M)
[3] = Table 4′, DHT-induced proliferation, E^−7
[4] = Mus musculus, Table 4′, bracketed values, read-out: Antiandrogenic Activity Shionogi, DHT [IC50 (nM)]
[5] = Mus musculus, read-out: Antiandrogenic Activity Shionogi, DHT [IC50]

Structure (SMILES)	% Inhibition Progesterone Receptor E^−6 (progesterone receptor; Table 4′, E^−6) [%]	% Inhibition Progesterone Receptor E^−8 (progesterone receptor; Table 4′, E^−8) [%]	Antiandrogenic Activity Shionogi, DHT E^−6 [1, 2] [%]	Antiandrogenic Activity Shionogi, DHT E^−7 [1, 3]	further results
CC1(C)CC[C@@]2(CCC3C4CCc5cc6oncc6cc5C4CC[C@@]32C)OC1=O (stereo partly drawn) [EM-1407-CS, 1,3,5(10)-estratrien-(2,3-oximino)-17(R)-spiro-2′-(5′,5′-dimethyl-6′-oxo)tetrahydropyran]	3	0	−96	−16%	
CC1(C)CCC2(CCC3C4CCc5cc(OS(C)(=O)=O)ccc5C4CCC32C)OC1=O (stereo not shown) [EM-1365-CS]	2	2	−53	−17%	
COC(=O)CCCC(=O)O[C@]1(C(C)=O)CC[C@H]2[C@@H]3C=C(C)C4=CC(=O)CC[C@]4(C)[C@H]3CC[C@@]21C [EM-1007, 6-Methyl-4,6-pregnadien-17α-ol-3,20-dione 4′-Carbomethoxybutyrate]					% Inhibition Progesterone Receptor (progesterone receptor; E^−6): 0%; % Inhibition Progesterone Receptor (progesterone receptor; E^−8): 0%; Antiandrogenic Activity Shionogi, DHT ([1]; E^−6): −76; Antiandrogenic Activity Shionogi, DHT ([1]; E^−7): −14
COc1c(Br)cc2c(c1Br)CCC1C2CCC2(C)C1CCC21CCC(C)(C)C(=O)O1 (stereo not shown) [EM-1385-CS]	2	2	−61	0%	
C[C@]12CCC3c4ccc(O)cc4CCC3C1CC[C@@]21CCCC(=O)O1 (stereo partly drawn) [EM-919, 1,3,5(10)-estratrien-3-ol-17(R)-spiro-2′(6′-oxo)tetrahydropyran]			−95	+38%	% Inhibition Progesterone Receptor *E^−5 (progesterone receptor; Table 4′, starred values, E^−5): 68* %; % Inhibition Progesterone Receptor *E^−7 (progesterone receptor; Table 4′, starred values, E^−7): 8* %; IC50 [1, 4]: 609 nM
CCCC(=O)O[C@]1(C)C(=O)CCC2C3C=C(C)C4=CC(=O)CC[C@]4(C)C3CC[C@@]21C (stereo partly shown) [EM-1078]					% Inhibition Progesterone Receptor E^−6 (progesterone receptor; E^−6): 53%; % Inhibition Progesterone Receptor E^−8 (progesterone receptor; E^−8): 0%; Antiandrogenic Activity Shionogi, DHT E^−6 ([1]; with DHT, E^−6): −72; Antiandrogenic Activity Shionogi, DHT E^−7 ([1]; with DHT, E^−7): −79
CCCCN(C)C(=O)[C@@]1(OC(C)=O)CCC2C3C=C(C)C4=CC(=O)CC[C@]4(C)C3CC[C@@]21C (stereo partly shown) [EM-1165]					% Inhibition Progesterone Receptor (progesterone receptor; E^−6): 7%; % Inhibition Progesterone Receptor (progesterone receptor; E^−8): 0%; Antiandrogenic Activity Shionogi, DHT ([1]; E^−6): −102; Antiandrogenic Activity Shionogi, DHT ([1]; E^−7): −14; IC50 [1, 5]: 232 nM
CC1(C)CCC2(CCC3C4CCc5c(cc(Cl)c(OS(C)(=O)=O)c5Cl)C4CCC32C)OC1=O (stereo not shown) [EM-1392-CS]	2	2	−75	0%	
CC1(C)CC[C@@]2(CCC3C4CCc5cc(F)ccc5C4CC[C@@]32C)OC1=O (stereo partly shown) [EM-1157-CS]	5	2	−19	0%	
C[C@]12CCC3c4cc([N+](=O)[O-])c(O)cc4CCC3C1CC[C@@]21CCCC(=O)O1 (stereo partly drawn) [EM-1124, 2-Nitro-1,3,5(10)-estraetriene-3-ol-17(R)-spiro-2′-(6′-oxo)tetrahydropyran]	20	1	−65	0%	
CC12C=CC(=O)C=C1C=CC1C2CCC2(C)C(=O)C3(CCCCC3)CC12 (stereo not shown) [CS-204]					% Inhibition Progesterone Receptor E^−6 (progesterone receptor; E^−6): 2%; % Inhibition Progesterone Receptor E^−8 (progesterone receptor; E^−8): 0%; Antiandrogenic Activity Shionogi, DHT E^−6 ([1]; with DHT, E^−6): −13; Antiandrogenic Activity Shionogi, DHT E^−7 ([1]; with DHT, E^−7): −25
CN(C)C(=O)c1ccc2c(c1)CCC1C2CCC2(C)C1CCC21CCC(C)(C)C(=O)O1 (stereo not shown) [EM-1403]	0	0	−54	0%	inhibition at 1 µM ([1]; Mus musculus, 10^−6 M inhibitor, negative number = stimulation reduced, read-out: percentage of inhibition of DHT-induced proliferation of Shionogi cells): 54%
CC1(C)CC[C@@]2(CCC3C4CCc5cc(C(=O)O)ccc5C4CC[C@@]32C)OC1=O (stereo partly drawn) [EM-1401, 3-Carboxy-1,3,5(10)-estratrien-17(R)-spiro-2′-(5′,5′-dimethyl-6′-oxo)tetrahydropyran]	0	0			IC50 [1, 4]: > 1000 nM
CC1(C)CC[C@@]2(CCC3C4CCc5cc(C(N)=O)ccc5C4CCC32C)OC1=O (stereo partly shown) [EM-1404]	0	0			IC50 [1, 4]: ~1000 nM
CC(=O)O[C@]1(C)C(=O)CCC2C3C=C(C)C4=CC(=O)C=C[C@]4(C)C3CC[C@@]21C (stereo partly shown) [CS-237]					% Inhibition Progesterone Receptor E^−6 (progesterone receptor; E^−6): 0%; % Inhibition Progesterone Receptor E^−8 (progesterone receptor; E^−8): 0%; IC50 ([1]; Mus musculus, with DHT, value in square brackets on second line, read-out: Antiandrogenic Activity Shionogi DHT [IC50 (nM)]): 95 nM; Antiandrogenic Activity Shionogi, DHT E^−6 ([1]; with DHT, E^−6): −106; Antiandrogenic Activity Shionogi, DHT E^−7 ([1]; with DHT, E^−7): −51
COCCOc1cc2c(cc1C#N)C1CC[C@@]3(C)C(CC[C@@]34CCC(C)(C)C(=O)O4)C1CC2 (stereo partly shown) [EM-1396]	0	0	−29	−16%	
C[C@]12CCC(=O)C=C1C=C[C@@H]1[C@@H]2CC[C@]2(C)C(=O)C3(CC4CC4C3)C[C@@H]12 (stereo partly shown) [EM-1299, 4,6-Androstadien-3,17-dione-16-spirobicyclo[3′.1′.0′]-hexane]					% Inhibition Progesterone Receptor E^−6 (progesterone receptor; E^−6): 0%; % Inhibition Progesterone Receptor E^−8 (progesterone receptor; E^−8): 0%; Antiandrogenic Activity Shionogi, DHT E^−6 ([1]; with DHT, E^−6): −27; Antiandrogenic Activity Shionogi, DHT E^−7 ([1]; with DHT, E^−7): 0
CC1CCC2(CCC3C4CCc5cc(O)c([N+](=O)[O-])cc5C4CCC32C)OC1=O [EM-1131, 2-Nitro-1,3,5(10)-estratrien-3-ol-17(R)-spiro-2′-(5′-methyl-6′-oxo)tetrahydropyran]	10	2	−47	−15%	
CC1(C)CCC2(CCC3C4CCc5cc(OCCN6CCCCC6)ccc5C4CCC32C)OC1=O [EM-1390-CS, 3-(N-piperidyl-ethyl)-1,3,5(10)-estratrien-17(R)-spiro-2′-(5′,5′-dimethyl-6′-oxo)-tetrahydropyran]	2	0	−119	−36%	
CC1CCC2(CCC3C4CCc5cc(O)c([N+](=O)[O-])cc5C4CCC32C)OC1=O [EM-1126, 2-Nitro-1,3,5(10)-estratrien-3-ol-17(R)-spiro-2′-(5′-methyl-6′-oxo)tetrahydropyran]	14	5	−49	0%	
CCC[C@@H]1CC2C3C=CC4=CC(=O)CC[C@]4(C)C3CC[C@]2(C)C1=O (stereo partly shown) [EM-1097]					% Inhibition Progesterone Receptor E^−6 (progesterone receptor; E^−6): 0%; % Inhibition Progesterone Receptor E^−8 (progesterone receptor; E^−8): 2%; Antiandrogenic Activity Shionogi, DHT E^−6 ([1]; with DHT, E^−6): −71; Antiandrogenic Activity Shionogi, DHT E^−7 ([1]; with DHT, E^−7): −3
COc1ccc2c(c1)C(=O)CC1C3CCC4(CCC(C)(C)C(=O)O4)C3(C)CCC21O (stereo not shown) [EM-1386]	0	0	−27	0%	
CC(C)C[C@@H]1CC2C3C=CC4=CC(=O)CC[C@]4(C)C3CC[C@]2(C)C1=O (stereo partly shown) [EM-1273-CS]					% Inhibition Progesterone Receptor E^−6 (progesterone receptor; E^−6): 0%; % Inhibition Progesterone Receptor E^−8 (progesterone receptor; E^−8): 0%; Antiandrogenic Activity Shionogi, DHT E^−6 ([1]; with DHT, E^−6): −43; Antiandrogenic Activity Shionogi, DHT E^−7 ([1]; with DHT, E^−7): 9
COCCOc1cc2c(cc1C(N)=O)C1CC[C@@]3(C)C(CC[C@@]34CCC(C)(C)C(=O)O4)C1CC2 (stereo partly drawn) [EM-1424, 2-Carbamoyl-3-(2″-methoxyethyloxy)-1,3,5(10)-estratrien 17(R)-spiro-2′-(5′,5′-dimethyl-6′-oxo)tetrahydropyran]	0	1	−58	−22%	
CCCC(=O)OC1(C(C)=O)CCC2C3C=C(C)C4=CC(=O)CC(C)C4(C)C3CCC21C (stereo not shown) [CS-245]					% Inhibition Progesterone Receptor (progesterone receptor; E^−6): 26%; % Inhibition Progesterone Receptor (progesterone receptor; E^−8): 0%; Antiandrogenic Activity Shionogi, DHT ([1]; E^−6): −109; Antiandrogenic Activity Shionogi, DHT ([1]; E^−7): −106; IC50 [1, 5]: 12 nM
